Laboratory results: PubChem BioAssay (NCI)
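Five compound concentrations were applied to cells in 96-well plates for 48 hours; endpoints were derived by simple linear interpolation of the resulting dose-response curve. TGI: concentration producing complete growth inhibition.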

What was measured:
Assay in all cases: NCI anticancer screen, dose series, 48 h
HCC-2998 colon = tested on: HCC-2998 colon
CCRF-CEM leukemia = tested on: CCRF-CEM leukemia
SR leukemia = tested on: SR leukemia
A549 NSCLC = tested on: A549 NSCLC
UO-31 renal = tested on: UO-31 renal
OVCAR-5 ovarian = tested on: OVCAR-5 ovarian
SK-OV-3 ovarian = tested on: SK-OV-3 ovarian
OVCAR-3 ovarian = tested on: OVCAR-3 ovarian
M14 melanoma = tested on: M14 melanoma
SNB-19 CNS = tested on: SNB-19 CNS
HCT-116 colon = tested on: HCT-116 colon
SNB-75 CNS = tested on: SNB-75 CNS
MALME-3M melanoma = tested on: MALME-3M melanoma
ACHN renal = tested on: ACHN renal
HT29 colon = tested on: HT29 colon
U251 CNS = tested on: U251 CNS
TK-10 renal = tested on: TK-10 renal
BT-549 breast = tested on: BT-549 breast
DU-145 prostate = tested on: DU-145 prostate
786-0 renal = tested on: 786-0 renal
A498 renal = tested on: A498 renal
SF-295 CNS = tested on: SF-295 CNS
NCI/ADR-RES ovarian = tested on: NCI/ADR-RES ovarian
HCT-15 colon = tested on: HCT-15 colon
NCI-H460 lung = tested on: NCI-H460 lung
SK-MEL-2 melanoma = tested on: SK-MEL-2 melanoma
MDA-N = tested on: MDA-N
IGROV1 ovarian = tested on: IGROV1 ovarian
MDA-MB-435 = tested on: MDA-MB-435
KM12 colon = tested on: KM12 colon
T-47D breast = tested on: T-47D breast
EKVX NSCLC = tested on: EKVX NSCLC
COLO 205 colon = tested on: COLO 205 colon
CAKI-1 renal = tested on: CAKI-1 renal
LOX IMVI melanoma = tested on: LOX IMVI melanoma
OVCAR-4 ovarian = tested on: OVCAR-4 ovarian
RPMI-8226 leukemia = tested on: RPMI-8226 leukemia
HL-60(TB) leukemia = tested on: HL-60(TB) leukemia
MDA-MB-231 breast = tested on: MDA-MB-231 breast
SN12C renal = tested on: SN12C renal
HOP-92 NSCLC = tested on: HOP-92 NSCLC
MOLT-4 leukemia = tested on: MOLT-4 leukemia
HOP-62 NSCLC = tested on: HOP-62 NSCLC
SF-539 CNS = tested on: SF-539 CNS
UACC-257 melanoma = tested on: UACC-257 melanoma
HS 578T breast = tested on: HS 578T breast
SK-MEL-5 melanoma = tested on: SK-MEL-5 melanoma
SF-268 CNS = tested on: SF-268 CNS
PC-3 prostate = tested on: PC-3 prostate
RXF 393 renal = tested on: RXF 393 renal
SK-MEL-28 melanoma = tested on: SK-MEL-28 melanoma
NCI-H226 lung = tested on: NCI-H226 lung
NCI-H522 lung = tested on: NCI-H522 lung
UACC-62 melanoma = tested on: UACC-62 melanoma
OVCAR-8 ovarian = tested on: OVCAR-8 ovarian
SW-620 colon = tested on: SW-620 colon
K-562 leukemia = tested on: K-562 leukemia
NCI-H23 lung = tested on: NCI-H23 lung

`CCN(CC)C(=S)N/N=C(\C)c1cccc(C)n1` showed a TGI (HCC-2998 colon) of 9.6 µM, a TGI (CCRF-CEM leukemia) greater than 100 µM and a TGI (SR leukemia) greater than 100 µM. It also gave a TGI (A549 NSCLC) of 11.4 µM, a TGI (UO-31 renal) of 5.83 µM and a TGI (OVCAR-5 ovarian) of 23.5 µM. For the same compound, the TGI (SK-OV-3 ovarian) was 11.3 µM, the TGI (OVCAR-3 ovarian) was 0.102 µM and the TGI (M14 melanoma) was 4.63 µM. It also gave a TGI (SNB-19 CNS) of 22.2 µM, a TGI (HCT-116 colon) of 1.34 µM and a TGI (SNB-75 CNS) of 14.1 µM. It also gave a TGI (MALME-3M melanoma) of 7.4 µM, a TGI (ACHN renal) of 1.92 µM and a TGI (HT29 colon) of 1.78 µM. It also gave a TGI (U251 CNS) of 12.7 µM, a TGI (TK-10 renal) of 17 µM and a TGI (BT-549 breast) of 18.8 µM. It also gave a TGI (DU-145 prostate) of 4.96 µM, a TGI (786-0 renal) of 1.36 µM and a TGI (A498 renal) of 0.572 µM. The TGI (SF-295 CNS) was 13.4 µM, the TGI (NCI/ADR-RES ovarian) was 13.5 µM and the TGI (HCT-15 colon) was 18 µM. For the same compound, the TGI (NCI-H460 lung) was 0.95 µM, the TGI (SK-MEL-2 melanoma) was 18 µM and the TGI (MDA-N) was 13.7 µM. It also gave a TGI (IGROV1 ovarian) of 12.7 µM, a TGI (MDA-MB-435) of 7.76 µM and a TGI (KM12 colon) of 6.53 µM. The TGI (T-47D breast) was 14.4 µM, the TGI (EKVX NSCLC) was 15.5 µM and the TGI (COLO 205 colon) was 12.1 µM. For the same compound, the TGI (CAKI-1 renal) was 16.6 µM, the TGI (LOX IMVI melanoma) was 2.55 µM and the TGI (OVCAR-4 ovarian) was 4.24 µM. For the same compound, the TGI (RPMI-8226 leukemia) was 23.4 µM, the TGI (HL-60(TB) leukemia) was 0.626 µM and the TGI (MDA-MB-231 breast) was 19.6 µM. It also gave a TGI (SN12C renal) of 13.4 µM, a TGI (HOP-92 NSCLC) of 4.49 µM and a TGI (MOLT-4 leukemia) greater than 71.5 µM. It also gave a TGI (HOP-62 NSCLC) of 12.7 µM, a TGI (SF-539 CNS) of 1.13 µM and a TGI (UACC-257 melanoma) of 13.3 µM. The TGI (HS 578T breast) was greater than 81.8 µM, the TGI (SK-MEL-5 melanoma) was 1.46 µM and the TGI (SF-268 CNS) was 12.4 µM. For the same compound, the TGI (PC-3 prostate) was 17.5 µM, the TGI (RXF 393 renal) was 14.4 µM and the TGI (SK-MEL-28 melanoma) was 6.47 µM. The TGI (NCI-H226 lung) was 5.7 µM, the TGI (NCI-H522 lung) was 0.454 µM and the TGI (UACC-62 melanoma) was 1.76 µM. For the same compound, the TGI (OVCAR-8 ovarian) was 16.9 µM and the TGI (SW-620 colon) was 17.2 µM.
`Cc1ccc2nc(-c3ccc(N)c(Br)c3)sc2c1` showed a TGI (HCC-2998 colon) of 14.8 µM, a TGI (CCRF-CEM leukemia) of 45.7 µM and a TGI (SR leukemia) of 43.2 µM. It also gave a TGI (A549 NSCLC) greater than 100 µM, a TGI (UO-31 renal) of 35.4 µM and a TGI (OVCAR-5 ovarian) greater than 100 µM. The TGI (SK-OV-3 ovarian) was 88.4 µM, the TGI (OVCAR-3 ovarian) was 40.1 µM and the TGI (M14 melanoma) was greater than 100 µM. It also gave a TGI (SNB-19 CNS) greater than 100 µM, a TGI (HCT-116 colon) greater than 100 µM and a TGI (MALME-3M melanoma) greater than 100 µM. The TGI (ACHN renal) was greater than 100 µM, the TGI (HT29 colon) was greater than 100 µM and the TGI (U251 CNS) was greater than 100 µM. The TGI (BT-549 breast) was 35.9 µM, the TGI (DU-145 prostate) was greater than 100 µM and the TGI (786-0 renal) was greater than 100 µM. For the same compound, the TGI (A498 renal) was greater than 100 µM, the TGI (SF-295 CNS) was greater than 100 µM and the TGI (NCI/ADR-RES ovarian) was greater than 100 µM. It also gave a TGI (HCT-15 colon) greater than 100 µM, a TGI (NCI-H460 lung) of 31.5 µM and a TGI (SK-MEL-2 melanoma) of 73.4 µM. The TGI (MDA-N) was greater than 100 µM, the TGI (MDA-MB-435) was 64.1 µM and the TGI (KM12 colon) was 30.8 µM. For the same compound, the TGI (T-47D breast) was 59.7 µM, the TGI (EKVX NSCLC) was 58 µM and the TGI (COLO 205 colon) was greater than 100 µM. The TGI (CAKI-1 renal) was greater than 100 µM, the TGI (LOX IMVI melanoma) was 30.4 µM and the TGI (OVCAR-4 ovarian) was greater than 100 µM. The TGI (HL-60(TB) leukemia) was greater than 100 µM, the TGI (MDA-MB-231 breast) was 86.4 µM and the TGI (SN12C renal) was greater than 100 µM. It also gave a TGI (HOP-92 NSCLC) of 50.6 µM, a TGI (MOLT-4 leukemia) of 97.5 µM and a TGI (K-562 leukemia) greater than 100 µM. The TGI (HOP-62 NSCLC) was 26.2 µM, the TGI (SF-539 CNS) was greater than 100 µM and the TGI (UACC-257 melanoma) was 72.2 µM. The TGI (NCI-H23 lung) was 96.9 µM, the TGI (HS 578T breast) was 43.6 µM and the TGI (SK-MEL-5 melanoma) was greater than 100 µM. It also gave a TGI (SF-268 CNS) greater than 100 µM, a TGI (PC-3 prostate) greater than 100 µM and a TGI (RXF 393 renal) of 50 µM. The TGI (SK-MEL-28 melanoma) was greater than 100 µM, the TGI (NCI-H226 lung) was greater than 100 µM and the TGI (NCI-H522 lung) was 47.7 µM. For the same compound, the TGI (UACC-62 melanoma) was greater than 100 µM and the TGI (OVCAR-8 ovarian) was greater than 100 µM.
